Read-outs that look alike come from different tables or passages of the source.
Tests used:
[1] = system: diabetic preclinical models; details: compared with pioglitazone, literature; cited from earlier work
[2] = system: bladder urothelium; assay: Bladder epithelium hyperplasia in rat tissue; format: in vivo; details: treated rats; pioglitazone 14.5 and 145 mg/Kg/day, MIN-102 25, 100 and 150 mg/Kg/day
[3] = system: CYP3A4; assay: CYP induction in cryopreserved human hepatocytes; format: in vitro ADME; details: 10 μM, similar assay
[4] = cited from earlier work; for AUC0-∞ mean: healthy subjects, single oral dose 45 mg
[5] = molecular target: T1, 2C8 (Homo sapiens, UniProt P10632); details: Sahi et al.; cited from earlier work
T1 sequence (P10632 1-490): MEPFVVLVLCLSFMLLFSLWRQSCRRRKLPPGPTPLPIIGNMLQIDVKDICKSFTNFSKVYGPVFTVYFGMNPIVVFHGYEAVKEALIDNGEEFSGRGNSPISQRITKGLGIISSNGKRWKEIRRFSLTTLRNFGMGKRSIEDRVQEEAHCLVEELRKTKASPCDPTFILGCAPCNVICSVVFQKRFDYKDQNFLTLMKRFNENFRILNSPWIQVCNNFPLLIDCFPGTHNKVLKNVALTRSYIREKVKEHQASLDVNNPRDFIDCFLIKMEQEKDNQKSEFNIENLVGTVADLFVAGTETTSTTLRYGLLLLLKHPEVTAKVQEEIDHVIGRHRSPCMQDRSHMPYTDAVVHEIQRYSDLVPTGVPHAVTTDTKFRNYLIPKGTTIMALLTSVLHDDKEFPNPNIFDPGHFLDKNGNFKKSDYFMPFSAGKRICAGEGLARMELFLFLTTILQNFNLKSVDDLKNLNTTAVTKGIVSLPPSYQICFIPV

[6] = system: CYP2B6; assay: CYP induction in cryopreserved human hepatocytes; format: in vitro ADME; details: 50 μM, similar assay
[7] = Eckland et al., Christensen et al.

For `CC(O)c1ccc(CCOc2ccc(CC3SC(=O)NC3=O)cc2)nc1` (stereo not drawn) [(1), 5-[[4-[2-[5-(1-hydroxyethyl)pyridin-2-yl]ethoxy]phenyl]methyl]-1,3-thiazolidine-2,4-dione], the pharmacological activity [1] is listed as “less active than pioglitazone”.
In the case of `CC(=O)c1ccc(CCOc2ccc(CC3SC(=O)NC3=O)cc2)nc1` (stereo not drawn) [M-III, reference compound], the pharmacological activity [1] is listed as “less active than pioglitazone”.
In the case of `CCc1ccc(CCOc2ccc(CC3SC(=O)NC3=O)cc2)nc1` (stereo not drawn) [pioglitazone], the bladder epithelium hyperplasia [2] is listed as “only observed in the pioglitazone group”, the “induction in CYP3A4” value [3] is listed as 4.79 fold and the “range in exposure (AUC)” value [4, 7] is listed as “up to 10 fold”. The “variability (CV %) in clearance” value [4, 7] was 40%-50%, the “AUC0-∞ mean” value ([4]; study a) was 13854 ng·h/mL and the “AUC0-∞ mean” value ([4]; study b) was 14458 ng·h/mL. For the same molecule, the “AUC0-∞ mean” value ([4]; study c) was 14071 ng·h/mL, the IC50 [5] was 9.38 µM and the Ki [5] was 1.69 µM. For the same molecule, the “induction in CYPB6” value [6] was 2.35 fold.

— patent US11938122B2, “5-[[4-[2-[5-(1-hydroxyethyl)pyridin-2-yl]ethoxy]phenyl]methyl]-1,3- thiazolidine-2,4-dione for treating nonalcoholic fatty liver disease” (Minoryx Therapeutics S.L., priority 2016, dated 2024)
